In ChEMBL document CHEMBL1125886, “Interphenylene 7-oxabicyclo[2.2.1]heptane thromboxane A2 antagonists. Semicarbazone omega-chains” (J Med Chem, 1991):

Assays:
Homo sapiens [1] = organism: Homo sapiens; test: The compound was tested for inhibition of arachidonic acid(800 uM) induced platelet aggregation in human platelet rich plasma.; type: functional; details: read-out: I50
Homo sapiens [2] = organism: Homo sapiens; test: The compound was tested for inhibition of U-46,619(10 uM) induced platelet aggregation in human platelet rich plasma(PRP).; type: functional; details: read-out: I50
Thromboxane A2 receptor = target: T1, Thromboxane A2 receptor (Homo sapiens, UniProt P21731); test: The compound was tested for inhibition of specific binding of [3H]-SQ 29,548 to thromboxane A2 receptor in human platelet membranes; type: cell membranes
T1 sequence (P21731 whole entry): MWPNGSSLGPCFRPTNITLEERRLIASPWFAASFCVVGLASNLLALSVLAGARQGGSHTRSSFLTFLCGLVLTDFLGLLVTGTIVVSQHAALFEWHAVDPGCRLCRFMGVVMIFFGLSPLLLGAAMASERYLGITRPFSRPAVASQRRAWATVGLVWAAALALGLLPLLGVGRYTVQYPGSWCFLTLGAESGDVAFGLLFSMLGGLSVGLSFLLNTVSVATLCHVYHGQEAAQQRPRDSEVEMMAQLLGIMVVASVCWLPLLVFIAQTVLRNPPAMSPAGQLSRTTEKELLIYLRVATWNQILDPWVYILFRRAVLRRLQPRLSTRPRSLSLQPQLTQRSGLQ

Mus musculus [3] = test: The compound was tested in vivo for duration of action after 0.2 mg/kg peroral administration to protect from U-46,619-induced(2.0 mg/kg, iv) death in mice; type: ADME, organism-based; set-up: dose 0.2 mg/kg, route oral; details: po
Mus musculus [4] = test: The compound was tested in vivo for duration of action after 10 mg/kg peroral administration to protect from U-46,619-induced(2.0 mg/kg, iv) death in mice; type: ADME, organism-based; set-up: dose 10 mg/kg, route oral; details: po

| SMILES | IC50 (Homo sapiens [1]) [nM] | IC50 (Homo sapiens [2]) [nM] | Kd (Thromboxane A2 receptor) [nM] | T50 (Mus musculus [3]) [h] | T50 (Mus musculus [4]) [h] |
| --- | --- | --- | --- | --- | --- |
| O=C(O)Cc1ccc(CCC2C3CCC(O3)C2/C=N/NC(=O)Nc2ccccc2)cc1 (stereo not drawn) | 688000 | – | – | – | – |
| O=C(O)CCC/C=C\CC1C2CCC(O2)C1/C=N/NC(=O)Nc1ccccc1 (stereo not drawn) | 230 | 710 | 39.4 | – | – |
| O=C(O)COc1cccc(CC2C3CCC(O3)C2/C=N/NC(=O)Nc2ccccc2)c1 (stereo not drawn) | 7200 | 25000 | 1200 | – | – |
| O=C(O)CCCc1ccccc1CC1C2CCC(O2)C1/C=N/NC(=O)Nc1ccccc1 (stereo not drawn) | 12 | 72 | 21.1 | 8.7 | – |
| O=C(O)CCc1ccccc1CC1C2CCC(O2)C1/C=N/NC(=O)Nc1ccccc1 (stereo not drawn) | 3 | 12 | 1 | 16 | – |
| O=C(O)COc1ccccc1CC1C2CCC(O2)C1/C=N/NC(=O)Nc1ccccc1 (stereo not drawn) | 15 | 46 | 6 | 3.6 | – |
| O=C(O)Cc1cccc(CC2C3CCC(O3)C2/C=N/NC(=O)Nc2ccccc2)c1 (stereo not drawn) | 370 | 4600 | 171 | 1.7 | 8.3 |
| O=C(O)Cc1cccc(CCC2C3CCC(O3)C2/C=N/NC(=O)Nc2ccccc2)c1 (stereo not drawn) | 30000 | 133000 | 1070 | – | – |
| O=C(O)Cc1ccc(CC2C3CCC(O3)C2/C=N/NC(=O)Nc2ccccc2)cc1 (stereo not drawn) | 310000 | – | – | – | – |
